Several values for one entry are separate records, joined by “and”; a condition that tells them apart may be missing. Equal values may be shown once.
Molecular target: Gamma-aminobutyric acid receptor subunit alpha-1 (Rattus norvegicus, UniProt P62813)
Sequence (P62813 whole entry): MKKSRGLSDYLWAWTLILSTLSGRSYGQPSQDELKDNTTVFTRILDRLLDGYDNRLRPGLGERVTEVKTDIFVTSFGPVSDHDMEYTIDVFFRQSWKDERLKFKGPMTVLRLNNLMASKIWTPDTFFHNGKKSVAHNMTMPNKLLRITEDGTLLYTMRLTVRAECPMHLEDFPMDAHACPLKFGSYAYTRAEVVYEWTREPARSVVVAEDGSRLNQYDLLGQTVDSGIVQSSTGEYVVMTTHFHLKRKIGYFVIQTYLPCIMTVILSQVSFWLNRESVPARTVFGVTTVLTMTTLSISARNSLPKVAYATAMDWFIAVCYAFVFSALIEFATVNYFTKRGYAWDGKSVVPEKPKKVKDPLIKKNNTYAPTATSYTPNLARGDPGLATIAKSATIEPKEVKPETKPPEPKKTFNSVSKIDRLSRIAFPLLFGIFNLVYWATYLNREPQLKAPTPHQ

## Cc1nnc2ccc(-c3cccc(C(F)(F)F)c3)nn12
  Ki: 0.7 nM and 0.81 nM
